Experimental data published in patent US20240109918A1, “HETEROCYCLIC COMPOUNDS AND USES THEREOF” (Kumquat Biosciences Inc., priority 2022, published 2024).

Legend:
KRASG12D = molecular target: T1, KRASG12D (Homo sapiens, UniProt P01116, G12D); assay: Bio-Biochem-PPI-HTRF Ras-SOS1 interaction assay (KRAS G12D); assay type: biochemical; settings: 5 nM
T1 construct: made in house; host or cells: E. coli BL21 (DE3)
Procedure, shortened: (§1)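 HTRF readout (ex 337 nm; em 620 and 665 nm) after ≥~10 min incubation; IC50 fitted from 665/620 ratio. GST-K-Ras wt or G12D plus anti-GST-Eu(K), His-hSOS1 plus anti-6His-XL665; duplicate dilutions, 10 μM top.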

KRASwt = molecular target: T2, KRASwt (Homo sapiens, UniProt P01116); assay: Bio-Biochem-PPI-HTRF Ras-SOS1 interaction assay (KRAS wt); assay type: biochemical; settings: 5 nM
T2 construct: made in house; host or cells: E. coli BL21 (DE3)
T2 sequence (P01116 1-188 isoform P01116-2): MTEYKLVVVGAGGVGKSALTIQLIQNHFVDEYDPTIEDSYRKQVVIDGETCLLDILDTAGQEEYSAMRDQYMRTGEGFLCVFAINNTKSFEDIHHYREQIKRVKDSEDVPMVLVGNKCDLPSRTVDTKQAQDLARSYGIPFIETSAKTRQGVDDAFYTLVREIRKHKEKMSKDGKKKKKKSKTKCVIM
Procedure, shortened: as §1

T1 sequence (P01116 1-188 isoform P01116-2 G12D): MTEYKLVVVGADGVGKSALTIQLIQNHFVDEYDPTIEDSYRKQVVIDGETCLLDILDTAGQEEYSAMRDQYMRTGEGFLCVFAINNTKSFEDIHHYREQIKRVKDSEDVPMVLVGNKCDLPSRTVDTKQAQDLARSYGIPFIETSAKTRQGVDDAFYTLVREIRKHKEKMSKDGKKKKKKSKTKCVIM

| SMILES | IC50 (KRASG12D) | IC50 (KRASwt) |
| --- | --- | --- |
| N#Cc1c(N)sc2c(F)ccc(-c3c(Cl)cc4c(N5CCCCC6(CN(C(=O)CC7CCO7)C6)C5)nc(OC[C@@]56CCCN5C[C@H](F)C6)nc4c3F)c12 (stereo partly drawn) [compound 203, 2-amino-4-(6-chloro-8-fluoro-2-(((2R,7aS)-2-fluorotetrahydro-1H-pyrrolizin-7a(5H)-yl)methoxy)-4-(2-(2-(oxetan-2-yl)acetyl)-2,6-diazaspiro[3.6]decan-6-yl)quinazolin-7-yl)-7-fluorobenzo[b]thiophene-3-carbonitrile] | < 5 µM | < 5 µM |
| CC1(C)CN(c2nc(OC[C@@]34CCCN3C[C@H](F)C4)nc3c(F)c(-c4ccc(F)c5sc(N)nc45)c(Cl)cc23)CC2(CNC2)O1 [compound 166, 4-(6-chloro-4-(6,6-dimethyl-5-oxa-2,8-diazaspiro[3.5]nonan-8-yl)-8-fluoro-2-(((2R,7aS)-2-fluorotetrahydro-1H-pyrrolizin-7a(5H)-yl)methoxy)quinazolin-7-yl)-7-fluorobenzo[d]thiazol-2-amine] | < 5 µM | < 5 µM |
| N#Cc1c(N)sc2c(F)ccc(-c3c(Cl)cc4c(N5CCC6(CCN(C(=O)C7CC7(F)F)C6)CC5)nc(OC[C@@]56CCCN5C[C@H](F)C6)nc4c3F)c12 (stereo partly drawn) [compound 349, 2-amino-4-(6-chloro-4-(2-(2,2-difluorocyclopropane-1-carbonyl)-2,8-diazaspiro[4.5]decan-8-yl)-8-fluoro-2-(((2R,7aS)-2-fluorotetrahydro-1H-pyrrolizin-7a(5H)-yl)methoxy)quinazolin-7-yl)-7-fluorobenzo[b]thiophene-3-carbonitrile] | < 5 µM | < 5 µM |
| N#Cc1c(N)sc2c(F)ccc(-c3c(Cl)cc4c(N5CCCCC6(CN(C(=O)N7CC[C@H]7C#N)C6)C5)nc(OC[C@@]56CCCN5C[C@H](F)C6)nc4c3F)c12 [compound 224, (2S)-1-(6-(7-(2-amino-3-cyano-7-fluorobenzo[b]thiophen-4-yl)-6-chloro-8-fluoro-2-(((2R,7aS)-2-fluorotetrahydro-1H-pyrrolizin-7a(5H)-yl)methoxy)quinazolin-4-yl)-2,6-diazaspiro[3.6]decane-2-carbonyl)azetidine-2-carbonitrile] | < 5 µM | < 5 µM |
| N#Cc1c(N)sc2c(F)ccc(-c3c(Cl)cc4c(N5CCCCC6(CN(C(=O)C7CC7(F)Cl)C6)C5)nc(OC[C@@]56CCCN5C[C@H](F)C6)nc4c3F)c12 (stereo partly drawn) [compound 336, 2-amino-4-(6-chloro-4-(2-(2-chloro-2-fluorocyclopropane-1-carbonyl)-2,6-diazaspiro[3.6]decan-6-yl)-8-fluoro-2-(((2R,7aS)-2-fluorotetrahydro-1H-pyrrolizin-7a(5H)-yl)methoxy)quinazolin-7-yl)-7-fluorobenzo[b]thiophene-3-carbonitrile] | < 5 µM | < 5 µM |
| CN(C)CCC(=O)N1CC2(C1)CN(c1nc(OC[C@@]34CCCN3C[C@H](F)C4)nc3c(F)c(-c4ccc(F)c5sc(N)c(C#N)c45)c(Cl)cc13)CCO2 [compound 312, 2-amino-4-(6-chloro-4-(2-(3-(dimethylamino)propanoyl)-5-oxa-2,8-diazaspiro[3.5]nonan-8-yl)-8-fluoro-2-(((2R,7aS)-2-fluorotetrahydro-1H-pyrrolizin-7a(5H)-yl)methoxy)quinazolin-7-yl)-7-fluorobenzo[b]thiophene-3-carbonitrile] | < 5 µM | < 5 µM |
| Nc1nc2c(-c3c(Cl)cc4c(N5CCCC6(CNCCO6)C5)nc(OC[C@@]56CCCN5C[C@H](F)C6)nc4c3F)ccc(F)c2s1 (stereo partly drawn) [compound 159, 4-(6-chloro-8-fluoro-2-(((2R,7aS)-2-fluorotetrahydro-1H-pyrrolizin-7a(5H)-yl)methoxy)-4-(1-oxa-4,8-diazaspiro[5.5]undecan-8-yl)quinazolin-7-yl)-7-fluorobenzo[d]thiazol-2-amine] | < 5 µM | < 5 µM |
| C#Cc1c(F)ccc2cc(O)cc(-c3ccc4c(N5CCCCC6(CN(C(=O)[C@H]7CC7(F)F)C6)C5)nc(OC[C@@]56CCCN5C[C@H](F)C6)nc4c3F)c12 [compound 305, ((R)-2,2-difluorocyclopropyl) (6-(7-(8-ethynyl-7-fluoro-3-hydroxynaphthalen-1-yl)-8-fluoro-2-(((2R,7aS)-2-fluorotetrahydro-1H-pyrrolizin-7a(5H)-yl)methoxy)quinazolin-4-yl)-2,6-diazaspiro[3.6]decan-2-yl)methanone] | < 5 µM | < 5 µM |
| N#Cc1c(N)sc2c(F)ccc(-c3c(Cl)cc4c(N5CCCCC6(CN(C(=O)N7CCC(F)(F)C7)C6)C5)nc(OC[C@@]56CCCN5C[C@H](F)C6)nc4c3F)c12 [compound 292, 2-amino-4-(6-chloro-4-(2-(3,3-difluoropyrrolidine-1-carbonyl)-2,6-diazaspiro[3.6]decan-6-yl)-8-fluoro-2-(((2R,7aS)-2-fluorotetrahydro-1H-pyrrolizin-7a(5H)-yl)methoxy)quinazolin-7-yl)-7-fluorobenzo[b]thiophene-3-carbonitrile] | < 5 µM | < 5 µM |
| N#Cc1c(N)sc2c(F)ccc(-c3c(Cl)cc4c(N5CCCC6(CN(C(=O)N7CC[C@H]7C#N)C6)C5)nc(OC[C@@]56CCCN5C[C@H](F)C6)nc4c3F)c12 [compound 211, (2S)-1-(6-(7-(2-amino-3-cyano-7-fluorobenzo[b]thiophen-4-yl)-6-chloro-8-fluoro-2-(((2R,7aS)-2-fluorotetrahydro-1H-pyrrolizin-7a(5H)-yl)methoxy)quinazolin-4-yl)-2,6-diazaspiro[3.5]nonane-2-carbonyl)azetidine-2-carbonitrile] | < 5 µM | < 5 µM |
| N#Cc1c(N)sc2c(F)ccc(-c3c(Cl)cc4c(N5CCCCC6(CN(C(=O)[C@H]7CC7(F)F)C6)C5)nc(OC[C@@]56CCCN5C[C@H](F)C6)nc4c3F)c12 (single isomer, unassigned) [compound 118] | < 5 µM | < 5 µM |
| N#Cc1c(N)sc2c(F)ccc(-c3c(Cl)cc4c(N5CCCCC6(CN(C(=O)C7C8COCC87)C6)C5)nc(OC[C@@]56CCCN5C[C@H](F)C6)nc4c3F)c12 (stereo partly drawn) [compound 238, 4-(4-(2-(3-oxabicyclo[3.1.0]hexane-6-carbonyl)-2,6-diazaspiro [3.6]decan-6-yl)-6-chloro-8-fluoro-2-(((2R,7aS)-2-fluorotetrahydro-1H-pyrrolizin-7a(5H)-yl)methoxy)quinazolin-7-yl)-2-amino-7-fluorobenzo[b]thiophene-3-carbonitrile] | < 5 µM | < 5 µM |
| N#CN1CC2(C1)CN(c1nc(OC[C@@]34CCCN3C[C@H](F)C4)nc3c(F)c(-c4ccc(F)c5sc(N)nc45)c(Cl)cc13)CCO2 [compound 187, 8-(7-(2-amino-7-fluorobenzo[d]thiazol-4-yl)-6-chloro-8-fluoro-2-(((2R,7aS)-2-fluorotetrahydro-1H-pyrrolizin-7a(5H)-yl)methoxy)quinazolin-4-yl)-5-oxa-2,8-diazaspiro[3.5]nonane-2-carbonitrile] | < 5 µM | < 5 µM |
| Nc1nc2c(-c3c(Cl)cc4c(N5CCC6(CC5)CN(C(=O)C(F)F)C6)nc(OC[C@@]56CCCN5C[C@H](F)C6)nc4c3F)ccc(F)c2s1 [compound 139, 1-(7-(7-(2-amino-7-fluorobenzo[d]thiazol-4-yl)-6-chloro-8-fluoro-2-(((2R,7aS)-2-fluorotetrahydro-1H-pyrrolizin-7a(5H)-yl)methoxy)quinazolin-4-yl)-2,7-diazaspiro[3.5]nonan-2-yl)-2,2-difluoroethan-1-one] | < 5 µM | < 5 µM |
| N#Cc1c(N)sc2c(F)ccc(-c3c(Cl)cc4c(N5CCCCC6(CN(C(=O)C7(C(F)F)COC7)C6)C5)nc(OC[C@@]56CCCN5C[C@H](F)C6)nc4c3F)c12 [compound 340, 2-amino-4-(6-chloro-4-(2-(3-(difluoromethyl)oxetane-3-carbonyl)-2,6-diazaspiro[3.6]decan-6-yl)-8-fluoro-2-(((2R,7aS)-2-fluorotetrahydro-1H-pyrrolizin-7a(5H)-yl)methoxy)quinazolin-7-yl)-7-fluorobenzo[b]thiophene-3-carbonitrile] | < 5 µM | < 5 µM |
| C[C@H](Oc1nc(N2CCCC3(CN(C(=O)[C@@H]4C[C@H]4C#N)C3)C2)c2cc(Cl)c(-c3ccc(F)c4sc(N)c(C#N)c34)c(F)c2n1)[C@@H]1CCCN1C [compound 105, 2-amino-4-(6-chloro-4-(2-((1R,2R)-2-cyanocyclopropane-1-carbonyl)-2,6-diazaspiro[3.5]nonan-6-yl)-8-fluoro-2-((S)-1-((S)-1-methylpyrrolidin-2-yl)ethoxy)quinazolin-7-yl)-7-fluorobenzo[b]thiophene-3-carbonitrile] | < 5 µM | < 5 µM |
| N#Cc1c(N)sc2c(F)ccc(-c3c(Cl)cc4c(N5CCC6(CN(C(=O)C7CC7(F)F)C6)C5)nc(OC[C@@]56CCCN5C[C@H](F)C6)nc4c3F)c12 (stereo partly drawn) [compound 143, 2-amino-4-(6-chloro-4-(2-(2,2-difluorocyclopropane-1-carbonyl)-2,6-diazaspiro[3.4]octan-6-yl)-8-fluoro-2-(((2R,7aS)-2-fluorotetrahydro-1H-pyrrolizin-7a(5H)-yl)methoxy)quinazolin-7-yl)-7-fluorobenzo[b]thiophene-3-carbonitrile] | < 5 µM | < 5 µM |
| N#Cc1c(N)sc2c(F)ccc(-c3c(Cl)cc4c(N5CCCCC6(CN(C(=O)C7CC7(F)F)C6)C5)nc(OC[C@@]56CCCN5C[C@H](F)C6)nc4c3F)c12 (stereo partly drawn) [compound 154, 2-amino-4-(6-chloro-4-(2-(2,2-difluorocyclopropane-1-carbonyl)-2,6-diazaspiro[3.6]decan-6-yl)-8-fluoro-2-(((2R,7aS)-2-fluorotetrahydro-1H-pyrrolizin-7a(5H)-yl)methoxy)quinazolin-7-yl)-7-fluorobenzo[b]thiophene-3-carbonitrile] | < 5 µM | < 5 µM |
